Data taken from patent US20260256751A1, “COMBINATION OF BETA-2-ADRENERGIC RECEPTOR AGONISTS AND GLP-1 RECEPTOR AGONISTS FOR USE IN TREATING HYPERGLYCAEMIA” (ATROGI AB, priority 2023, published 2026).

Assays:
[1] = test system: differentiated L6-myotubes; test: Glucose uptake screen (Biological example 1 of WO 2019/053427); assay type: cell-based; details: compound at 10 μM, activity relative to isoproterenol at 10 μM, read-out: Biological example 1 of WO 2019/053427 (GU)
How it was run: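 Rat L6 myoblasts were differentiated into myotubes over 7 days in 2% FBS, then serum-starved overnight. Cells were stimulated with 1×10^−5 M compound plus β2 antagonist ICI-118551 for 1 h 40 min and re-dosed for 20 min in glucose-free medium. Uptake of 50 nM ^3H-2-deoxyglucose over 10 min was counted after NaOH lysis.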

[2] = test system: differentiated L6-myotubes; test: cAMP production relative to isoprenaline (Biological example 2 of WO 2019/053427); assay type: cell-based; details: 0.25 h, compound at 10 μM, activity relative to isoproterenol at 10 μM
How it was run: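 Differentiated L6 myotubes stimulated 15 min with test compound or isoprenaline, each at final 1×10^−5 M, in HBSS with 1% BSA, 5 mM HEPES, 1 mM IBMX, pH 7.4. cAMP production by the compound expressed relative to that induced by the same concentration of isoprenaline.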

| Compound | Emax at 10 µM [1] [%] | Emax at 10 µM [2] [%] |
| --- | --- | --- |
| CC12CC(C1)[C@H]([C@H](O)c1cncc(F)c1)N2 [Compound 220, (R)-{(R)-1-methyl-2-azabicyclo[2.1.1]hex-3-yl}(5-fluoro-3-pyridyl)methanol] | > 75 | < 25 |
| O[C@H](c1cccc(F)c1)C12CCC(CCc3cccnc3)(CC1)N2 [Compound 446, (R)-(m-fluorophenyl){4-[2-(3-pyridyl)ethyl]-7-azabicyclo[2.2.1]hept-1-yl}methanol] | > 75 | 50 to 75 |
| CCCCNC[C@H](O)c1cnc(NC(=O)C(C)C)nc1 [Compound 88, N-{5-[(R)-2-(butylamino)-1-hydroxyethyl]-2-pyrimidinyl}2-methylpropionamide] | 50 to 75 | < 25 |
| CO[C@H]1CC[C@H](C(C)(C)NC[C@H](O)c2cccc(F)c2)CC1 [Compound 239, (R)-1-(m-fluorophenyl)-2-{1-methyl-1-[(1r,4R)-4-methoxycyclohexyl]ethyl-amino}-1-ethanol] | > 75 | < 25 |
| CO[C@H]1CC[C@@H](CNC[C@H](O)c2cncc(F)c2)CC1 [Compound 246, (R)-1-(5-fluoro-3-pyridyl)-2-({[(1s,4S)-4-methoxycyclohexyl]meth-yl}amino)-1-ethanol] | 50 to 75 | < 25 |
| CC12CC(C1)[C@@H]([C@H](O)c1cncc(F)c1)N2 [Compound 223, (R)-{(S)-1-methyl-2-azabicyclo[2.1.1]hex-3-yl}(5-fluoro-3-pyridyl)methanol] | 25 to 50 | < 25 |
| CC1(C)C[C@H]([C@H](O)c2ccccc2F)N1 [Compound 204, (R)-[(R)-4,4-dimethyl-2-azetidinyl](o-fluorophenyl)methanol] | > 75 | 25 to 50 |
| CS(=O)(=O)N[C@H]1CC[C@@H](C[C@@H]2CC[C@H]([C@H](O)c3cccc(F)c3)N2)CC1 [Compound 510, (R)-[(2R,5S)-5-{[(1s,4R)-4-(mesylamino)cyclohexyl]methyl}-2-pyrrolidinyl](m-fluorophenyl)methanol] | > 75 | < 25 |
| CC(C)(CC[C@H]1CC[C@@H](O)CC1)NC[C@H](O)c1cncc(F)c1 [Compound 296, (R)-2-{1,1-dimethyl-3-[(1s,4R)-4-hydroxycyclohexyl]propylamino}-1-(5-fluoro-3-pyridyl)-1-ethanol] | > 75 | < 25 |
| O[C@@H](c1cncc(F)c1)C12CCC(CCc3ccc(OC(F)(F)F)cc3)(CC1)N2 [Compound 543, (S)-(5-fluoro-3-pyridyl){4-[2-(p-trifluoromethoxyphenyl)ethyl]-7-azabicyclo[2.2.1]hept-1-yl}methanol] | < 25 | < 25 |
| CC(C)(C)NC[C@H](O)c1ccc(O)cn1 [Compound 95, 6-[(S)-2-(tert-butylamino)-1-hydroxyethyl]-3-pyridinol] | 50 to 75 | < 25 |
| CC(C)(CC[C@H]1CC[C@H](N)CC1)NC[C@H](O)c1cncc(F)c1 [Compound 358, (R)-2-{1,1-dimethyl-3-[(1r,4R)-4-aminocyclohexyl]propylamino}-1-(5-fluoro-3-pyridyl)-1-ethanol] | 25 to 50 | < 25 |
| CC(C)(C)CNC[C@H](O)c1cccc(F)c1 [Compound 117, (R)-1-(m-flurophenyl)-2-(neopentylamino)-1-ethanol] | 25 to 50 | < 25 |
| COC(=O)[C@H]1CC[C@@H](CCC(C)(C)NC[C@H](O)c2cccc(F)c2)CC1 [Compound 351, methyl (1S,4s)-4-{3-[(R)-2-(m-fluorophenyl)-2-hydroxyethylamino]-3-methylbutyl}cyclohexanecarboxylate] | > 75 | 25 to 50 |
| CCC[C@H]1CCC[C@H]([C@H](O)c2ccccc2F)N1 [Compound 93, (R)-[(2R,6S)-6-propyl-2-piperidyl](o-fluorophenyl)methanol] | 25 to 50 | < 25 |
| CC1(C)CCC[C@@H]([C@H](O)c2cccc(F)c2)N1 [Compound 190, (R)-[(S)-6,6-dimethyl-2-piperidyl](m-fluorophenyl)methanol] | > 75 | < 25 |
| CC(C)(C[C@H]1CC[C@@H](NC(=O)C(F)(F)F)CC1)NC[C@H](O)c1cccc(F)c1 [Compound 454, N-[(1S,4s)-4-{2-[(R)-2-(m-fluorophenyl)-2-hydroxyethylamino]-2-methylpropyl}cyclohexyl]trifluoroacetamide] | > 75 | < 25 |
| O[C@@H](CNCCC[C@H]1CC[C@@H](O)CC1)c1cccc(F)c1 [Compound 306, (R)-1-(m-fluorophenyl)-2-{3-[(1s,4R)-4-hydroxycyclohexyl]propylamino}-1-ethanol] | 25 to 50 | < 25 |

| Compound | Emax at 10 µM [1] [%] | Emax at 10 µM [2] [%] |
| --- | --- | --- |
| CCC[C@H]1CCC[C@@H]([C@H](O)c2cccc(O)c2)N1 [Compound 122, (R)-[(2S,6S)-6-propyl-2-piperidyl](m-hydroxyphenyl)methanol] | 50 to 75 | < 25 |
| CC(C)(CC[C@H]1CC[C@H](O)CC1)NC[C@H](O)c1ccccc1F [Compound 319, (R)-2-{1,1-dimethyl-3-[(1r,4S)-4-hydroxycyclohexyl]propylamino}-1-(o-fluorophenyl)-1-ethanol] | > 75 | < 25 |
| CC(C)(C[C@H]1CC[C@H](N)CC1)NC[C@H](O)c1cccc(C#N)n1 [Compound 417, 6-[(S)-2-{1,1-dimethyl-2-[(1r,4S)-4-aminocyclohexyl]ethylamino}-1-hydroxyethyl]-2-pyridinecarbontirile] | > 75 | 25 to 50 |
| CS(=O)(=O)N(Cc1ccccc1)[C@H]1CC[C@@H](C[C@@H]2CC[C@H]([C@H](O)c3cccc(F)c3)N2)CC1 [Compound 508, (R)-[(2R,5S)-5-({(1s,4R)-4-[(benzyl)-N-mesylamino]cyclohexyl}methyl)-2-pyrrolidinyl](m-fluorophenyl)methanol] | < 25 | < 25 |
| CS(=O)(=O)N[C@H]1CC[C@@H](CNC[C@H](O)c2cncc(F)c2)CC1 [Compound 314, (R)-1-(5-fluoro-3-pyridyl)-2-({[(1s,4S)-4-(mesylamino)cyclohexyl]methyl}amino)-1-ethanol] | 50 to 75 | < 25 |
| CC12CC(C1)[C@@H]([C@@H](O)c1cccc(Cl)c1)N2 [Compound 207, (S)-{(S)-1-methyl-2-azabicyclo[2.1.1]hex-3-yl}(m-chlorophenyl)methanol] | 25 to 50 | < 25 |
| CC1(C)C[C@@H]([C@H](O)c2cccc(F)c2)N1 [Compound 200, (R)-[(S)-4,4-dimethyl-2-azetidinyl](m-fluorophenyl)methanol] | < 25 | < 25 |
| CO[C@H]1CC[C@@H](CC(C)(C)NC[C@H](O)c2cncc(F)c2)CC1 [Compound 248, (R)-2-{1,1-dimethyl-2-[(1s,4S)-4-methoxycyclohexyl]ethyl-amino}-1-(5-fluoro-3-pyridyl)-1-ethanol] | > 75 | < 25 |
| CC(C)(C[C@H]1CC[C@@H](NC(=O)OC(C)(C)C)CC1)NC[C@H](O)c1cncc(F)c1 [Compound 469] | > 75 | < 25 |
| CCC[C@@H]1CC[C@@H]([C@@H](O)c2cccc(F)c2)N1 [Compound 133, (S)-[(2S,5R)-5-propyl-2-pyrrolidinyl](m-fluorophenyl)methanol] | 50 to 75 | < 25 |
| CCC[C@H]1CCC[C@H]([C@@H](O)c2ccc(F)cc2)N1 [Compound 105, (S)-[(2R,6S)-6-propyl-2-piperidyl](p-fluorophenyl)methanol] | 25 to 50 | < 25 |
| CCC[C@@H](C)NC[C@H](O)c1cccc(O)c1 [Compound 28, (R)-2-[(R)-1-methylbutylamino]-1-(m-hydroxyphenyl)-1-ethanol] | > 75 | 50 to 75 |
| CC12CCC([C@@H](O)c3cccc(Cl)c3)(CC1)N2 [Compound 196, (S)-(m-chlorophenyl)(4-methyl-7-azabicyclo[2.2.1]hept-1-yl)methanol] | 25 to 50 | < 25 |
| CCCCNCC(O)c1ccc(Cl)c(N)c1 (stereo not shown) [Compound 36, 1-(3-amino-4-chlorophenyl)-2-(butylamino)-1-ethanol] | 25 to 50 | < 25 |
| CC(=O)N[C@H]1CC[C@H](CNC[C@H](O)c2cncc(F)c2)CC1 [Compound 309, N-[(1R,4r)-4-{[(R)-2-(5-fluoro-3-pyridyl)-2-hydroxyethylamino]methyl}cyclohexyl]acetamide] | 50 to 75 | < 25 |
| CC(C)(NC[C@H](O)c1cccc(F)c1)[C@H]1CC[C@H](O)CC1 [Compound 283, (R)-1-(m-fluorophenyl)-2-{1-methyl-1-[(1r,4R)-4-hydroxycyclohexyl]ethyl-amino}-1-ethanol] | 50 to 75 | < 25 |
| CC(C)(C[C@H]1CC[C@@H](C(=O)O)CC1)NC[C@H](O)c1cncc(F)c1 [Compound 324, (1S,4s)-4-{2-[(R)-2-(5-fluoro-3-pyridyl)-2-hydroxyethylamino]-2-methylpropyl}cyclohexanecarboxylic acid] | 25 to 50 | < 25 |
